These results are taken from patent publication US10144742B2 (Millennium Pharmaceuticals, Inc., priority 2014, dated 2018).

Some results are limits rather than exact numbers.

In test [1] the test system is PC3 cells. Put plainly: PC3 growth inhibition (Cell-titer glo, 72 hours). It is filed as cell-based. Particulars: compound concentration 1.667 μM, PC3 cells, 72 hours, Cell-titer glo; for inhibition at 1.667 µM: Homo sapiens, PC-3, read-out: Percent Inhibition (PC3 growth inhibition). The method, boiled down: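 PC3 cells in RPMI1640 seeded overnight at 37 °C, 5% CO2, then exposed to compound diluted in AIM serum-free medium for 72 h. Viability by CellTiter-Glo luminescence vs DMSO controls; single-concentration % remaining viability (1 μM or 1.667 μM), or GI50/LD50 from curves.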

For test [2], the target named is hNAMPT protein (Homo sapiens (Human), UniProt P43490). In words: NAMPT enzyme assay (TR-FRET/HTRF, BodiPY ligand, anti 6His-Tb). The test is classed as binding. To be noted: for IC50: NAMPT IC50 range class, read-out: IC50; for inhibition at 1 µM: read-out: Percent Inhibition. The method, boiled down: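 TR-FRET binding assay in which His-tagged human NAMPT with anti-6His-Tb is displaced by compound from a BodiPY ligand, incubated 1 h at rt in the dark. Excitation was at 320 nm, with the 520/486 nm emission ratio read. IC50 was fitted from inhibition relative to DMSO controls.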
On the technique in general: TR-FRET usually uses a lanthanide donor and a delayed reading to cut background.

Sequence of hNAMPT protein (P43490 whole entry): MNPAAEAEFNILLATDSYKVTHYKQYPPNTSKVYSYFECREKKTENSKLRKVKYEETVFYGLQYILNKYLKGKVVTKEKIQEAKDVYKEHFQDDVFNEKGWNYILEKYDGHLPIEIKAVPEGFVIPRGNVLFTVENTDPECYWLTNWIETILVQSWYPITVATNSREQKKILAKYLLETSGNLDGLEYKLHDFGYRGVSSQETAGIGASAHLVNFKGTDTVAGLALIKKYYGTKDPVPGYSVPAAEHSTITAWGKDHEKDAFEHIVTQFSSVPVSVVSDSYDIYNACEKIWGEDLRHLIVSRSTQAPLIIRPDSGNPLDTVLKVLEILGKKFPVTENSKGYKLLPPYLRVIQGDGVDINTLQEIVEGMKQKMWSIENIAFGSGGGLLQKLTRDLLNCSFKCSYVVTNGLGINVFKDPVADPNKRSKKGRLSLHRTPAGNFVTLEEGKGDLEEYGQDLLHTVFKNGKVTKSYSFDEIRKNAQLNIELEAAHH

As for `CC(C)(C)OCc1nc2ccc(C(=O)NCCCc3ncc[nH]3)cc2nc1-c1ccc(F)cc1` [Compound I-341, N-(3-(1H-imidazol-2-yl)propyl)-2-(tert-butoxymethyl)-3-(4-fluorophenyl)quinoxaline-6-carboxamide], in test [1], the inhibition at 1.667 µM is 1%. Besides, in test [2], the IC50 is 100 to 500 nM. Moreover, the inhibition at 1 µM in test [2] (compound concentration 1 μM) came out at 73%.
Regarding `Cc1ccsc1-c1nc2cc(C(=O)NCCCc3ncc[nH]3)ccc2nc1-c1ccc(F)cc1` [Compound I-342, 2-(4-fluorophenyl)-N-[3-(1H-imidazol-2-yl)propyl]-3-(3-methyl-2-thienyl)quinoxaline-6-carboxamide], the inhibition at 1.667 µM in test [1] was 3%. Moreover, the IC50 in test [2] was less than 100 nM. Besides, in test [2] (compound concentration 1 μM), the inhibition at 1 µM worked out at 89%.
The matching figures for `CCOc1ccc(F)c(-c2nc3cc(C(=O)NCCCc4ncc[nH]4)ccc3nc2-c2ccc(F)cc2)c1` [Compound I-343, 3-(5-ethoxy-2-fluorophenyl)-2-(4-fluorophenyl)-N-[3-(1H-imidazol-2-yl)propyl]quinoxaline-6-carboxamide]: 1%, 100 to 500 nM and 82%.
As to `COc1cc(-c2nc3cc(C(=O)NCCCc4ncc[nH]4)ccc3nc2OC(C)C)ccc1F` [Compound I-344, 3-(4-fluoro-3-methoxyphenyl)-N-[3-(1H-imidazol-2-yl)propyl]-2-isopropoxyquinoxaline-6-carboxamide], in test [1], the “Percent Inhibition (PC3 growth inhibition)” value was 1%. In test [2], the IC50 was less than 100 nM. In addition, in test [2] (compound concentration 1 μM), the “Percent Inhibition” value is listed as greater than 99%.
As to `CN1CCC(Oc2nc3ccc(C(=O)NCCCc4ncc[nH]4)cc3nc2-c2ccc(F)cc2)CC1` [Compound I-345, 3-(4-fluorophenyl)-N-[3-(1H-imidazol-2-yl)propyl]-2-[(1-methylpiperidin-4-yl)oxy]quinoxaline-6-carboxamide], the inhibition at 1.667 µM in test [1] amounted to 2%. Besides, the IC50 in test [2] is less than 100 nM. The inhibition at 1 µM in test [2] (compound concentration 1 μM) was found to be 98%.
Regarding `CN1CCCCC1COc1nc2ccc(C(=O)NCCCc3ncc[nH]3)cc2nc1-c1ccc(F)cc1` (stereo not drawn) [Compound I-346, 3-(4-fluorophenyl)-N-[3-(1H-imidazol-2-yl)propyl]-2-[(1-methylpiperidin-2-yl)methoxy]quinoxaline-6-carboxamide], the inhibition at 1.667 µM in test [1] was found to be 3%. The IC50 in test [2] is less than 100 nM. Further, the inhibition at 1 µM in test [2] (compound concentration 1 μM) came out at 98%.
Consider `O=C(NCCCc1ncc[nH]1)c1ccc2nc(OCc3cn[nH]c3)c(-c3ccc(F)cc3)nc2c1` [Compound I-347, 3-(4-fluorophenyl)-N-[3-(1H-imidazol-2-yl)propyl]-2-(1H-pyrazol-4-ylmethoxy)quinoxaline-6-carboxamide], for which the inhibition at 1.667 µM in test [1] is 33%. In addition, the IC50 in test [2] is less than 100 nM. Moreover, the inhibition at 1 µM in test [2] (compound concentration 1 μM) came to 97%.
`O=C(NCCCc1ncc[nH]1)c1ccc2nc(OCC3COC3)c(-c3ccc(F)cc3)nc2c1` [Compound I-348, 3-(4-fluorophenyl)-N-[3-(1H-imidazol-2-yl)propyl]-2-(oxetan-3-ylmethoxy)quinoxaline-6-carboxamide]: the inhibition at 1.667 µM in test [1] was found to be 3%. The IC50 in test [2] is less than 100 nM. In addition, the inhibition at 1 µM in test [2] (compound concentration 1 μM) is greater than 99%.
For `CC(Oc1nc2ccc(C(=O)NCCCc3ncc[nH]3)cc2nc1-c1ccc(F)cc1)c1ccccc1` (stereo not drawn) [Compound I-349, 3-(4-fluorophenyl)-N-[3-(1H-imidazol-2-yl)propyl]-2-(1-phenylethoxy)quinoxaline-6-carboxamide], the inhibition at 1.667 µM in test [1] was 3%. Moreover, in test [2], the IC50 is less than 100 nM. In addition, in test [2] (compound concentration 1 μM), the inhibition at 1 µM stood at 91%.
The matching figures for `O=C(NCCCc1ncc[nH]1)c1ccc2nc(-c3ccc(F)cc3)c(-c3cccc(OC(F)(F)F)c3)nc2c1` [Compound I-350, 2-(4-fluorophenyl)-N-[3-(1H-imidazol-2-yl)propyl]-3-[3-(trifluoromethoxy)phenyl]quinoxaline-6-carboxamide]: 2%, 100 to 500 nM and 86%.

By inhibition is commonly meant the change of the read-out against control, counted positive when it falls. Usually IC50 stands for the point on the concentration scale where inhibition reaches its midpoint.
